In patent US20060194819A1, “Activation specific inhibitors of nf-kb and method of treating inflammatory processes in cardio-vascular diseases” (PROCORDE GMBH, priority 2003, published 2006):
Like-named read-outs stand apart in the source and are kept apart here.

How the values were obtained:
[1] = Isomerization in solution observed by NMR; type: physicochemical
From the text: These signals were tentatively attributed to a cis/trans isomer of compound 4. The signal intensities of this isomer accounted for approximately 10% of the signals due to the major product. In acetone-db, this isomerization was slower and occurred within days.

HeLa cells = experiment: Cell viability, WST-1 assay; type: cell-based
Procedure: […] The medium was changed and 10 μL of the WST-1 reagent was added to each well. After 2 h the absorption of 450 nm was measured in an Elisa-reader.

[2] = Solubility tests, 1.2 mg in 500 μl of each solvent; type: physicochemical
Procedure: Solubility tests were performed with aliquots of compound 4 (1.2 mg) and 500 μl of each solvent.

[3] = test system: ICAM expression in HUVEC cells; experiment: ICAM expression in HUVEC cells by FACS analysis; type: cell-based; conditions: Homo sapiens, read-out: IC50 for inhibition of ICAM expression
Procedure: HUVEC cells were seeded in 6-well plates 1×10^6 cells/well. After 24 h the cells were treated with different concentration of compound 68. After 1 h the medium was removed and the cells incubated with either IL-1 (100 pg/ml) or TNF alpha (1 ng/ml) for a total of 4 h. Thereafter the cells were harvested with trypsin, washed with PBS and centrifuged with 1000 rpm for 5 min. The pellet was resuspended in 50 μl PBS and 5 μl CD54-PE antibody (anti-ICAM antibody from Beckman/Coulter/Immunotech). After washing twice in PBS, the ICAM cell surface expression was analysed by a FACScan (Becton Dickinson).

[4] = test system: I KappaB alpha phosphorylation; experiment: P-IkBalpha detection in Western blot of HeLa cell lysates after TNF alpha stimulation; type: cell-based; conditions: HeLa cells, 10 and 100 μM
Procedure: P-IkBα Detektion in Western-Blot Protocol: HeLa cells were maintained in Dulbecco's modified Eagle's medium (Invitrogen) supplemented with 10% fetal bovine serum, 2 mM L-glutamine, penicillin (50 units/ml) and streptomycin (50 μg/ml). 24 h before treatment with different compounds HeLa cells were plated at a density of 5×10^6 per well in 100-mm cell culture dishes to 90% confluences.
The cells were incubated with different drugs at the concentration indicated for 1 h, washed twice with PBS and stimulated with 20 ng/ml TNF alpha (Roche). After 7 min the cells were washed twice with ice cold PBS followed by scraping and transferring into a 1.5 ml micro centrifuge tube. After centrifugation by 2000 rpm for 2 min by 4° C. the PBS supernatant was removed and 200 μl lysis-buffer (10 mM Hepes, pH 7.9, 0.1% NP40, 10 mM, 300 mM Sucrose, 10 mM KCl, 15 mM MgCl2, 1 mM DTT, 0.5 mM PMSF and antipain, aprotinin, leupeptin each 0.75 μg/ml (Sigma) was added to the pellet. The resuspended pellet was incubated on ice for 5 min and centrifuged at 13000 g for 30 s. 30 μl of the supernatant, cytosolic extract, was diluted with Laemmli-buffer (2% SDS, 2% 2-Mercaptoethanol, 0.01% Bromophenol blue, 8% Glycerine), heated by 60° C. for 10 min and loaded to a 4-20% polyacrylamid gels (BioRad). After electrophoresis the proteins were transferred to a nitrocellulose membrane using the wet blotting technique. First the membrane was blocked with Roti-Block (Roth) and afterwards incubated with monoclonal antibodies against P-IkBalpha (Santa Cruz Biotechnology, used at 1:200 dilution). This incubation was followed by the appropriate horseradish peroxidase-conjugated secondary antibody (Dianova) at 1:10000 dilution. Antibody binding was visualized on x-ray film using the Western blot Chemiluminescent Reagent Detection Kit (Santa Cruz).

NF-kappaB = experiment: Electrophoretic mobility shift assay (EMSA) for NF-kappaB in LPS stimulated THP-1 monocytic cells; type: cell-based; conditions: THP-1 cells; for NF-kappaB activation: LPS
Procedure: Electrophoretic Mobility Shift Assay (EMSA): THP-1 monocytic cells (DSM, Braunschweig, Germany) were maintained in suspension in RPMI 1640 (Glutamax-1, low endotoxin) containing 7% fetal calf serum (FCS) (Myoclone super plus, low endotoxin), 100 units/ml penicillin, and […] streptomycin (Life Technologies, Inc., Eggenstein, Germany). For the experiments, the cells were plated at a density of 3×10^6 per well in 6-well culture dishes. Nuclear extracts were prepared by harvesting cells by centrifugation at 1200 rpm for 7 min at 4° C. The cells were resuspended by adding 1 ml ice cold PBS and transferred into a microcentrifuge tube. After centrifugation at 2000 g for 2 min by 4° C. the pellet was lysed in 50 μl buffer A (10 mM Hepes, pH 7.9, 0.1% NP40, 10 mM, 300 mM Sucrose, 10 mM KCl, 15 mM MgCl2, 1 mM DTT, 0.5 mM PMSF and antipain, aprotinin, leupeptin each 0.75 μg/ml (Sigma)). After 5 min incubation on ice and centrifugation at 16000 g for 5 sec the pellet was washed with 100 μl buffer A. The nuclear pellet was resuspended with 100 μl buffer B (20 mM Hepes, pH 7.9, 100 mM KCl, 100 mM NaCl, 1 mM DTT, 20% Glycerol, 0.5 mM PMSF and antipain, aprotinin, leupeptin each 0.75 μg/ml (Sigma)) and sonicated for 10 sec. The probe was pulse centrifuged at 16000 g for 5 sec. The nuclear extract was aliquoted and snap-freeze in liquid N2. Nuclear extracts ([…] of protein) were incubated with radiolabeled DNA probes (10 ng; 10^5 cpm) for 30 min at room temperature in […] of binding buffer (20 mM HEPES, pH 7.9, 50 mM KCl, 1 mM dithiothreitol, 0.5 mM EDTA, 10% glycerol, 1 mg/ml bovine serum albumin, 0.2% Nonidet P-40, 50 ng of poly(dI-dC)/ml). […] The binding of Sp-1 and AP-1 was also analysed by EMSA using specific consensus oligonucleotides (Promega, Heidelberg, Germany) that were labeled with [γ-^32P]ATP (>5,000 Ci/mmol, NEN Life Science Products) and T4 polynucleotide kinase (Boehringer Mannheim). Gels were dried and analysed by autoradiography. […]

**Q.** Which “signal intensities of the isomer relative to the major product” value ([1]; DMSO-d6, rt) does the source give for O=C(NN=Cc1ccccc1O)c1ccc([N+](=O)[O-])o1 [COM 68, 5-Nitro-furan-2-carboxylic acid (2-hydroxy-benzylidene)-hydrazide] here?
**A.** The value was “approximately 10%”.

**Q.** And the “time to appearance of second set of NMR signals (cis/trans isomer)” value ([1]; DMSO-d6, rt)?
**A.** The value was “within minutes”.

**Q.** And the time of isomerization ([1]; acetone-d6)?
**A.** Its time of isomerization is “within days”.

**Q.** And the “cell viability (WST staining)” value (HeLa cells; HeLa cells, 33 and 100 μmol/L, one day)?
**A.** Its value is “decreased cell viability”.

**Q.** What about the Solubility ([2]; Acetone) of the same molecule?
**A.** Its Solubility is “++++ (++++: 100% dissolved)”.

**Q.** What about the Solubility ([2]; DMSO) of the same molecule?
**A.** Its Solubility is “++++ (++++: 100% dissolved)”.

**Q.** What about the Solubility ([2]; H2O) of the same molecule?
**A.** The Solubility was “− (−: 0% dissolved)”.

**Q.** And the Solubility ([2]; MeCN)?
**A.** Its Solubility is “+++ (+++: 80% dissolved)”.

**Q.** What about the Solubility ([2]; MeOH) of the same molecule?
**A.** The Solubility was “+ (+: 20% dissolved)”.

**Q.** And the IC50 ([3]; after IL-1 stimulation (100 pg/ml))?
**A.** Its IC50 is 7.8 µM.

**Q.** And the IC50 ([3]; after TNF alpha stimulation (1 ng/ml))?
**A.** Its IC50 is 4.5 µM.

**Q.** And the “effect on IkappaB phosphorylation (Western blot), comparison of COM 73 and COM 54 family” value [4]?
**A.** Its value is “no effect”.

**Q.** What does the source list for O=C(N/N=C/c1ccc(/C=N/NC(=O)c2ccc([N+](=O)[O-])o2)cc1)c1ccc([N+](=O)[O-])o1 [Compound 54]?
**A.** NF-kappaB activation (NF-kappaB; 12.5 μM and 25 μM): significantly affected; NF-kappaB activation (NF-kappaB; 50 μM and 100 μM): nearly completely abolished; reduced NF-kappaB-release (NF-kappaB; 100 μM, 1 h, LPS 1 μg/ml): 95%; decrease in metabolic activity compared with untreated control (WST-1) (HeLa cells; HeLa cells, 30 μM, 3 h): no significant decrease; influence on cell viability (WST staining) (HeLa cells; HeLa cells, 0.3 to 100 μmol/L, one day): no negative influence; toxicity for HeLa cells (WST-1) (HeLa cells; concentrations and conditions of the described assays): not found to be toxic; effect on IkappaB phosphorylation (Western blot), comparison of COM 73 and COM 54 family [4]: no effect
